Test results as given in publication PMC11234460, “In Silico Discovery of Stapled Peptide Inhibitor Targeting the Nur77‐PPARγ Interaction and Its Anti‐Breast‐Cancer Efficacy” (Advanced Science, 2024).
Where a SMILES comes first, the peptide text is derived from it. Bridges are numbered along the chain shown (N, C = ends). [ ]: non-standard residue; d: D form. S5 = C=CCCC[C@](C)(N)C(=O)O

Columns and labels:
Nur77-LBD = molecular target: T1, Nur77-LBD (Homo sapiens, UniProt P22736); assay: Surface plasmon resonance (SPR), Biacore T200; assay type: binding; conditions: read-out: ka (SPR)
T1 construct: The LBD fragment of human Nur77 (residues 351–598), tagged with an N‐terminal His6‐tag; His6 (N); made in house; host or cells: Escherichia coli BL21(DE3)
Experimental: ST‐CY14 with Nur77‐LBD was detected by SPR using the Biacore T200 system at 25 °C. Recombinant human Nur77‐LBD protein was immobilized on an activated carboxymethylated 5 sensor chip (GE Healthcare) using the amine coupling method. Gradient concentrations of […] were injected at a flow rate of 30 µL min^−1 in a running buffer (1% DMSO in PBS). The results were analyzed with Biacore evaluation software (T200 version 2.0). The data were fitted to the 1:1 Langmuir binding model, and kinetic parameters were derived.

MDA-MB-231-GFP xenograft = assay: MDA-MB-231-GFP orthotopic xenograft tumor model; assay type: in vivo, mouse
Description: Female BALB/c mice (4–5 weeks old, 16–18 g) and BALB/c mice (7–8 weeks old, 18–20 g) were provided by Shanghai Slake Experimental Animal Co., Ltd., and housed under specific pathogen‐free conditions for use in orthotopic xenograft tumor model experiments and bone metastasis tumor model experiments. The animal experiment was approved by the ethical committee of Shanghai University of Traditional Chinese Medicine (approval number: PZSHUTCM220627036).
To establish the bone metastasis tumor model, 1×10^5 cells were injected into the left ventricle of each mouse (7–8 weeks old), and surgery was monitored using a cardiac ultrasound instrument. The mice were randomly divided into three groups and treated with PBS (control group, n = 6), 5 mg kg^−1 ST‐CY14 (n = 6), and 10 mg kg^−1 ST‐CY14 (n = 6) Tumor cell metastasis was monitored using an in vivo imaging instrument (IVIS Spectrum, PerkinElmer, USA). by intraperitoneal injection of 20 mg kg^−1 D‐luciferin. The mice were treated with ST‐CY14 via intravenous injection using a 100 µL PBS solution every 2 days starting on the designated day after tumor cell injection. Bone tissue with MDA‐BoM‐1833 cell metastasis was obtained and stained for TRAP. The mice sera were collected and analyzed for BSP and β‐CTx levels using ELISA (Lengton, BPE10823, BPE10438). For the orthotopic xenograft tumor model, 3×10^6 cells were injected into the fourth pair of breast pads on the left side of the mouse (4–5 weeks old). The mice were treated with ST‐CY14 every two days once the tumor volume reached 30–50 mm^3, with the same groups as in the bone metastasis tumor model. The tumors were collected and stained for H&E, Ki‐67, and TUNEL assays, which were conducted by Wuhan Servicebio Technology Co., Ltd. Major organs (heart, liver, spleen, lung, and kidney) were also collected for H&E analysis by Wuhan Servicebio Technology Co., Ltd. The Transcriptome and LC/MS targeted lipid metabolome were sequenced by OE Biotech, Inc., Shanghai, China. […]

α-chymotrypsin [1] = molecular target: α-chymotrypsin (Bos taurus, UniProt P00766); assay: Protease stability in α-chymotrypsin solution; assay type: in vitro ADME; conditions: α-chymotrypsin, PBS pH 7.4, room temperature
Experimental: (§1) The peptides were dissolved in PBS (pH 7.4) to a final concentration of 1 × 10^−3 M. α‐Chymotrypsin was dissolved in PBS (5 × 10^−2 M, containing 2 × 10^−3 M CaCl2, pH 7.4) to a final concentration of 0.5 ng µL^−1. Subsequently, 100 µL peptides were incubated with α‐chymotrypsin (1 mL) at room temperature, and 100 µL of the digestion mixture was collected at different times (5/10/20/30/60/120/240/480 min) and added to a centrifuge tube containing 20 µL of 1 M HCl to quench the enzymatic reaction. The solution of α‐Chymotrypsin peptide fragments was monitored by analytical HPLC to determine the fraction of protease degradation at 214 nm.

α-chymotrypsin [2] = assay: Protease stability in α-chymotrypsin solution; assay type: in vitro ADME; conditions: α-chymotrypsin solution; α-chymotrypsin 0.5 ng µL^−1 in PBS (5 × 10^−2 M, 2 × 10^−3 M CaCl2, pH 7.4); 100 µL of 1 × 10^−3 M peptide + 1 mL enzyme; room temperature; 5-480 min; quenched with 1 M HCl; analytical HPLC at 214 nm
Experimental: as §1

Nur77-PPARγ interaction = molecular target: T2, Nur77-PPARγ interaction (Homo sapiens, UniProt P22736); assay: Co-immunoprecipitation (IP: Nur77; IB: PPARγ, Trim13) in HEK293T cells; assay type: cell-based; conditions: 1 × 10^−5 M, 24 h
T2 construct: expressed in transfected cells; host or cells: HEK293T
Experimental: HEK293T cells were seeded overnight in 10 cm culture dishes and transfected with the Nur77 and PPARγ plasmids for 48 h. After transfection, T‐CY14 and ST‐CY14 were incubated with the cells for 24 h. The cells were then collected and lysed in 500 µL precooled NP40 lysis buffer (Beyotime, P0013F), which contained 20x […] and 50x phosphatase inhibitor. All the samples were prepared at a concentration of 1 mg mL^−1, and 0.5 mg of the sample was subsequently incubated overnight at 4 °C with 2 µg of Nur77 antibody (Proteintech, 12235‐1‐AP). The samples were then incubated with Protein A/G PLUS‐Agarose (Santa Cruz, sc‐2003) for 4 h at 4 °C. The beads were collected through centrifugation and washed five times with NP40 lysis buffer. Finally, 5x loading buffer was added to the buffer containing the beads for Western blot analysis of PPARγ antibody (Proteintech, 16643‐1‐AP), Trim13 antibody (Abcam, ab234847), and β‐actin antibody (epizyme, LF201).

MDA-MB-231 cells = assay: qPCR of CD36 and FABP4; assay type: cell-based; conditions: n = 3

T2 sequence (P22736 whole entry): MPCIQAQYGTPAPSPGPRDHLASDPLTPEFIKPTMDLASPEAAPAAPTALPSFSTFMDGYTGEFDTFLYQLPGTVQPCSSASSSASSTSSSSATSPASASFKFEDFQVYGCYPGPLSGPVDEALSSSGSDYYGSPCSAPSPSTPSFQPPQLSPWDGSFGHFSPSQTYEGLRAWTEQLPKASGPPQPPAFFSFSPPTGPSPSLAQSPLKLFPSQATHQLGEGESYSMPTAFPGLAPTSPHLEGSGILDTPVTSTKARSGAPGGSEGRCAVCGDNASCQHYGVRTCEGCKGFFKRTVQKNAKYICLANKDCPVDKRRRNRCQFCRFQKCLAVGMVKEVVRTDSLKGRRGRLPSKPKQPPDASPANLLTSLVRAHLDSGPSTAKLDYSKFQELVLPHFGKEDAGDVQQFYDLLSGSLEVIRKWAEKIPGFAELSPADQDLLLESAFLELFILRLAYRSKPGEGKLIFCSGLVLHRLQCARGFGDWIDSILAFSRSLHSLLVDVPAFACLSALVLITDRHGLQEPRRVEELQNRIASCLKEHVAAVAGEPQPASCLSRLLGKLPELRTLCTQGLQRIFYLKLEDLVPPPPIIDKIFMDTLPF
T1 sequence (P22736 351-598): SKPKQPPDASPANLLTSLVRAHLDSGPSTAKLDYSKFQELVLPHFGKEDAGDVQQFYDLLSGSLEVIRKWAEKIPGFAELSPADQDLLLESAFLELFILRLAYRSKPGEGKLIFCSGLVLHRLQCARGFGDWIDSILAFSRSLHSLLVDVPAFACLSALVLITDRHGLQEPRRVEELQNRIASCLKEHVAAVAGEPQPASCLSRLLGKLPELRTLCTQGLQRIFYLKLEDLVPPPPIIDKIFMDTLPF

C[C@@H](O)[C@@H]1NC(=O)[C@H](CCCNC(=N)N)NC(=O)[C@H](CCCNC(=N)N)NC(=O)[C@@](C)(NC(=O)[C@H](Cc2ccccc2)NC(=O)CNC(=O)[C@H](CCCCN)NC(=O)[C@H](CS)NC(=O)CNC(=O)[C@H](CCC(=O)O)NC(=O)[C@@H](N)CS)CCCC=CCCC[C@@](C)(C(=O)N[C@@H](CCCNC(=N)N)C(=O)N[C@@H](Cc2ccc(O)cc2)C(=O)N[C@@H](Cc2ccc(O)cc2)C(=O)NCC(=O)N[C@@H](CCCNC(=N)N)C(=O)N[C@@H](CCCCN)C(=O)N[C@@H](CCCCN)C(=O)N[C@@H](CCCNC(=N)N)C(=O)N[C@@H](CCCNC(=N)N)C(=O)N[C@@H](CCC(N)=O)C(=O)N[C@@H](CCCNC(=N)N)C(=O)N[C@@H](CCCNC(=N)N)C(=O)N[C@@H](CCCNC(=N)N)C(N)=O)NC1=O [ST-CY14] (H-CEGCKGF[S5]RRT[S5]RYYGRKKRRQRRR-NH2; staple 8-12)
kon (Nur77-LBD): 1.6e+06 M⁻¹ s⁻¹
Body weight loss and signs of organ toxicity (MDA-MB-231-GFP xenograft; 5 and 10 mg kg^−1, tail vein, once every two days, thirty days, H&E of major organs): without significant body weight loss (Figure 6c) or other signs of organ toxicity
Nur77, CD36 and FABP4 protein levels in tumors (Western blot) (MDA-MB-231-GFP xenograft; MDA-MB-231-GFP tumors): effectively increased Nur77 protein levels, and decreased CD36 and FABP4 protein levels
Ki-67, H&E and TUNEL analysis of tumor sections (MDA-MB-231-GFP xenograft; compared with the control group, n = 3): reduced tumor cell proliferation, increased necrosis area and apoptosis
Improvement of proteolytic half-life versus T-CY14 (α-chymotrypsin [1]): seventeen‐fold improvement
half-life at 90.9 µM (α-chymotrypsin [2]): 1.46 h
Endogenous Nur77-PPARγ binding (Co-IP) (Nur77-PPARγ interaction): inhibited the binding between Nur77 and PPARγ
Trim13 and ubiquitination of Nur77 (Co-IP) (Nur77-PPARγ interaction): obviously reduced the expression of Trim13 and attenuated the PPARγ‐induced ubiquitination of endogenous Nur77
CD36 and FABP4 transcription (qPCR) (MDA-MB-231 cells): dose‐dependently inhibited CD36 and FABP4 expression at the transcriptional level
